Results taken from the supplement of paper PMC10307832.

Assays:
Assay in all cases: relative viability (nuclei count vs DMSO), 5 days (fraction); higher = more cells survive
TGX 221 + Foretinib = compound: CC1=CN2C(=O)C=C(N=C2C(=C1)C(C)NC3=CC=CC=C3)N4CCOCC4 [TGX 221] + COc1cc2c(Oc3ccc(NC(=O)C4(C(=O)Nc5ccc(F)cc5)CC4)cc3F)ccnc2cc1OCCCN1CCOCC1 [Foretinib] (partner 0.25 µM)
Outline: (§1)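 Lung cancer cell lines were pin-tool dosed in 1536-well plates on the day after seeding, with either a lone drug or a fixed anchor-drug dose plus five library-drug doses (not always all listed) in √10 steps. Nuclei were counted on 4× images after 5 days. Relative viability is the ratio of treated-well to vehicle-well nuclei counts, with each value a median of duplicate plates.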

TGX 221 + Bortezomib = compound: CC1=CN2C(=O)C=C(N=C2C(=C1)C(C)NC3=CC=CC=C3)N4CCOCC4 [TGX 221] + CC(C)C[C@H](NC(=O)[C@H](Cc1ccccc1)NC(=O)c1cnccn1)B(O)O [Bortezomib] (partner 0.002 µM)
Outline: as §1

[1] = compound: C1=CC=C(C(=C1)C2=CC=C(C=C2)C3=CSC4=C3C(=C(C(=O)N4)C#N)O)O + Nc1ncn([C@H]2C[C@H](O)[C@@H](CO)O2)c(=O)n1 [Decitabine] (partner 2 µM)
Outline: as §1

In the case of UMC-11, the relative viability (TGX 221 + Foretinib; first compound 0.08 µM) is reported as 0.934, the relative viability (TGX 221 + Foretinib; first compound 0.253 µM) is reported as 0.932 and the relative viability (TGX 221 + Foretinib; first compound 0.8 µM) is reported as 1. For the same cell line, the relative viability (TGX 221 + Foretinib; first compound 2.53 µM) was 1.06, the relative viability (TGX 221 + Foretinib; first compound 8 µM) was 1.03 and the relative viability (TGX 221 + Bortezomib; first compound 0.08 µM) was 0.873. The relative viability (TGX 221 + Bortezomib; first compound 0.253 µM) was 0.772, the relative viability (TGX 221 + Bortezomib; first compound 0.8 µM) was 0.823 and the relative viability (TGX 221 + Bortezomib; first compound 2.53 µM) was 0.745. For the same cell line, the relative viability (TGX 221 + Bortezomib; first compound 8 µM) was 0.796, the relative viability ([1]; first compound 0.08 µM) was 0.668 and the relative viability ([1]; first compound 0.253 µM) was 1.02. For the same cell line, the relative viability ([1]; first compound 0.8 µM) was 0.495, the relative viability ([1]; first compound 2.53 µM) was 0.477 and the relative viability ([1]; first compound 8 µM) was 0.57.
In the case of NCI-H2405, the relative viability (TGX 221 + Foretinib; first compound 0.08 µM) is reported as 1.01, the relative viability (TGX 221 + Foretinib; first compound 0.253 µM) is reported as 0.99 and the relative viability (TGX 221 + Foretinib; first compound 0.8 µM) is reported as 1.04. For the same cell line, the relative viability (TGX 221 + Foretinib; first compound 2.53 µM) was 0.897, the relative viability (TGX 221 + Foretinib; first compound 8 µM) was 0.863 and the relative viability (TGX 221 + Bortezomib; first compound 0.08 µM) was 0.94. The relative viability (TGX 221 + Bortezomib; first compound 0.253 µM) was 1.04, the relative viability (TGX 221 + Bortezomib; first compound 0.8 µM) was 1.01 and the relative viability (TGX 221 + Bortezomib; first compound 2.53 µM) was 0.92. For the same cell line, the relative viability (TGX 221 + Bortezomib; first compound 8 µM) was 0.953, the relative viability ([1]; first compound 0.08 µM) was 0.798 and the relative viability ([1]; first compound 0.8 µM) was 0.774. The relative viability ([1]; first compound 2.53 µM) was 0.66 and the relative viability ([1]; first compound 8 µM) was 0.725.
With NCI-H1915 the relative viability (TGX 221 + Foretinib; first compound 0.08 µM) was 0.941, the relative viability (TGX 221 + Foretinib; first compound 0.253 µM) was 1.07 and the relative viability (TGX 221 + Foretinib; first compound 0.8 µM) was 1.08. It also gave a relative viability (TGX 221 + Foretinib; first compound 2.53 µM) of 1.04, a relative viability (TGX 221 + Foretinib; first compound 8 µM) of 1.05 and a relative viability (TGX 221 + Bortezomib; first compound 0.08 µM) of 0.897. The relative viability (TGX 221 + Bortezomib; first compound 0.253 µM) was 0.963, the relative viability (TGX 221 + Bortezomib; first compound 0.8 µM) was 1.04 and the relative viability (TGX 221 + Bortezomib; first compound 2.53 µM) was 0.914. The relative viability (TGX 221 + Bortezomib; first compound 8 µM) was 1.02, the relative viability ([1]; first compound 0.08 µM) was 0.263 and the relative viability ([1]; first compound 0.253 µM) was 0.269. It also gave a relative viability ([1]; first compound 0.8 µM) of 0.251, a relative viability ([1]; first compound 2.53 µM) of 0.252 and a relative viability ([1]; first compound 8 µM) of 0.262.
Work on NCI-H322M yielded a relative viability (TGX 221 + Foretinib; first compound 0.08 µM) of 0.924, a relative viability (TGX 221 + Foretinib; first compound 0.253 µM) of 0.869 and a relative viability (TGX 221 + Foretinib; first compound 0.8 µM) of 1. It also gave a relative viability (TGX 221 + Foretinib; first compound 2.53 µM) of 0.763, a relative viability (TGX 221 + Foretinib; first compound 8 µM) of 0.765 and a relative viability (TGX 221 + Bortezomib; first compound 0.08 µM) of 1.15. It also gave a relative viability (TGX 221 + Bortezomib; first compound 0.253 µM) of 1.09, a relative viability (TGX 221 + Bortezomib; first compound 0.8 µM) of 1.15 and a relative viability (TGX 221 + Bortezomib; first compound 2.53 µM) of 1.18. It also gave a relative viability (TGX 221 + Bortezomib; first compound 8 µM) of 1.11, a relative viability ([1]; first compound 0.08 µM) of 0.679 and a relative viability ([1]; first compound 0.253 µM) of 0.667. The relative viability ([1]; first compound 0.8 µM) was 0.747, the relative viability ([1]; first compound 2.53 µM) was 0.69 and the relative viability ([1]; first compound 8 µM) was 0.731.
LXF-289 was tested, and the relative viability (TGX 221 + Foretinib; first compound 0.08 µM) was 0.974, the relative viability (TGX 221 + Foretinib; first compound 0.253 µM) was 0.986 and the relative viability (TGX 221 + Foretinib; first compound 0.8 µM) was 1. The relative viability (TGX 221 + Foretinib; first compound 2.53 µM) was 0.97, the relative viability (TGX 221 + Foretinib; first compound 8 µM) was 0.995 and the relative viability (TGX 221 + Bortezomib; first compound 0.08 µM) was 1.02. It also gave a relative viability (TGX 221 + Bortezomib; first compound 0.253 µM) of 0.979, a relative viability (TGX 221 + Bortezomib; first compound 0.8 µM) of 0.915 and a relative viability (TGX 221 + Bortezomib; first compound 2.53 µM) of 0.974. It also gave a relative viability (TGX 221 + Bortezomib; first compound 8 µM) of 1.06, a relative viability ([1]; first compound 0.08 µM) of 0.428 and a relative viability ([1]; first compound 0.253 µM) of 0.393. The relative viability ([1]; first compound 0.8 µM) was 0.393, the relative viability ([1]; first compound 2.53 µM) was 0.364 and the relative viability ([1]; first compound 8 µM) was 0.365.
In the case of PC-3 [JPC-3], the relative viability (TGX 221 + Foretinib; first compound 0.08 µM) is reported as 1, the relative viability (TGX 221 + Foretinib; first compound 0.253 µM) is reported as 1.03 and the relative viability (TGX 221 + Foretinib; first compound 0.8 µM) is reported as 1.05. For the same cell line, the relative viability (TGX 221 + Foretinib; first compound 2.53 µM) was 0.947, the relative viability (TGX 221 + Foretinib; first compound 8 µM) was 0.972 and the relative viability (TGX 221 + Bortezomib; first compound 0.08 µM) was 0.759. For the same cell line, the relative viability (TGX 221 + Bortezomib; first compound 0.253 µM) was 0.73, the relative viability (TGX 221 + Bortezomib; first compound 0.8 µM) was 0.883 and the relative viability (TGX 221 + Bortezomib; first compound 2.53 µM) was 0.735. The relative viability (TGX 221 + Bortezomib; first compound 8 µM) was 0.851, the relative viability ([1]; first compound 0.08 µM) was 0.806 and the relative viability ([1]; first compound 0.253 µM) was 0.879. The relative viability ([1]; first compound 0.8 µM) was 0.844, the relative viability ([1]; first compound 2.53 µM) was 0.956 and the relative viability ([1]; first compound 8 µM) was 0.805.
Work on BEN yielded a relative viability (TGX 221 + Foretinib; first compound 0.08 µM) of 0.667, a relative viability (TGX 221 + Foretinib; first compound 0.253 µM) of 0.58 and a relative viability (TGX 221 + Foretinib; first compound 0.8 µM) of 0.748. The relative viability (TGX 221 + Foretinib; first compound 2.53 µM) was 0.624, the relative viability (TGX 221 + Foretinib; first compound 8 µM) was 0.606 and the relative viability (TGX 221 + Bortezomib; first compound 0.08 µM) was 0.773. For the same cell line, the relative viability (TGX 221 + Bortezomib; first compound 0.253 µM) was 0.694, the relative viability (TGX 221 + Bortezomib; first compound 0.8 µM) was 0.528 and the relative viability (TGX 221 + Bortezomib; first compound 2.53 µM) was 0.756. The relative viability (TGX 221 + Bortezomib; first compound 8 µM) was 0.915, the relative viability ([1]; first compound 0.08 µM) was 0.605 and the relative viability ([1]; first compound 0.253 µM) was 0.745. It also gave a relative viability ([1]; first compound 0.8 µM) of 0.771, a relative viability ([1]; first compound 2.53 µM) of 0.717 and a relative viability ([1]; first compound 8 µM) of 0.653.
In the case of NCI-H1355, the relative viability (TGX 221 + Foretinib; first compound 0.08 µM) is reported as 0.994, the relative viability (TGX 221 + Foretinib; first compound 0.253 µM) is reported as 0.814 and the relative viability (TGX 221 + Foretinib; first compound 0.8 µM) is reported as 0.984. For the same cell line, the relative viability (TGX 221 + Foretinib; first compound 2.53 µM) was 0.849, the relative viability (TGX 221 + Foretinib; first compound 8 µM) was 0.788 and the relative viability (TGX 221 + Bortezomib; first compound 0.08 µM) was 1.18. It also gave a relative viability (TGX 221 + Bortezomib; first compound 0.253 µM) of 1.16, a relative viability (TGX 221 + Bortezomib; first compound 0.8 µM) of 1.26 and a relative viability (TGX 221 + Bortezomib; first compound 2.53 µM) of 1.12. It also gave a relative viability (TGX 221 + Bortezomib; first compound 8 µM) of 1.08, a relative viability ([1]; first compound 0.08 µM) of 0.362 and a relative viability ([1]; first compound 0.253 µM) of 0.391. The relative viability ([1]; first compound 0.8 µM) was 0.351, the relative viability ([1]; first compound 2.53 µM) was 0.333 and the relative viability ([1]; first compound 8 µM) was 0.366.
Cell Line NCI-H441 has a relative viability (TGX 221 + Foretinib; first compound 0.08 µM) of 1.11, a relative viability (TGX 221 + Foretinib; first compound 0.253 µM) of 0.849 and a relative viability (TGX 221 + Foretinib; first compound 0.8 µM) of 0.919. The relative viability (TGX 221 + Foretinib; first compound 2.53 µM) was 0.897, the relative viability (TGX 221 + Foretinib; first compound 8 µM) was 0.96 and the relative viability (TGX 221 + Bortezomib; first compound 0.08 µM) was 0.515. For the same cell line, the relative viability (TGX 221 + Bortezomib; first compound 0.253 µM) was 0.772, the relative viability (TGX 221 + Bortezomib; first compound 0.8 µM) was 0.416 and the relative viability (TGX 221 + Bortezomib; first compound 2.53 µM) was 0.566. The relative viability (TGX 221 + Bortezomib; first compound 8 µM) was 0.389, the relative viability ([1]; first compound 0.08 µM) was 0.28 and the relative viability ([1]; first compound 0.253 µM) was 0.3. It also gave a relative viability ([1]; first compound 0.8 µM) of 0.286, a relative viability ([1]; first compound 2.53 µM) of 0.242 and a relative viability ([1]; first compound 8 µM) of 0.233.
